Assay results: patent US8709764B2, “Enzymatic demethylation of flavonoids” (Universiteit Gent, priority 2005, dated 2014)
Several values for one entry are separate records, joined by “and”; a condition that tells them apart may be missing. Equal entries are not always repeated.

Columns and labels:
E. limosum = assay: Selection of 8-PN producing E. limosum by repeated incubations with IX; assay type: in vitro ADME, Eubacterium limosum; conditions: 6 parallel incubations, 25 mg/l IX, 8 days
Experimental: Because of the capacity of E. limosum to transform IX into 8-PN, a selection procedure was performed to obtain a strain, capable to quantitatively produce 8-PN. The selection procedure consisted of 6 parallel incubations of E. limosum [cultures from single colonies] with 25 mg/l IX and incubation for 8 days. Next, the culture which produced the highest amount of 8-PN was selected and used as inoculum for the next round of 6 parallel incubations (Table 3). […] This means that, after only three rounds, a strain was selected which converted almost all IX (high mean) and was also stable (low standard deviation).

[1] = system: fecal culture B supplemented with E. limosum; assay: Supplementation of selected E. limosum strain to non-converting fecal culture B incubated with IX; assay type: in vitro ADME, human
Experimental: The most efficient E. limosum strain, obtained from the selection experiment in example 2, was supplemented to the originally non-converting culture B of example 1, to examine the capacity of this strain to initiate the production of 8-PN in the complex environment of a fecal suspension. The strain was added to the culture in proportions ranging from 0% up to 100% (v/v). This mixture was incubated with 10% (v/v) of 25 mg/L IX for a period of seven days in Brain Heart Infusion broth (with 0.5 g/l cystein-HCl) under anaerobic conditions. The concentration of 8-PN was monitored every two days (FIG. 7).

[2] = system: intestinal microbial communities PF+ and PF−; assay: Simulator of the Human Intestinal Microbial Ecosystem (SHIME) dosed with IX; assay type: in vitro ADME
Description: The SHIME consists of a succession of five reactors that represent the different parts of the human gastrointestinal tract. The first two reactors (stomach [reactor 1] and small intestine [reactor 2]) are of the fill-and-draw principle to simulate different steps in food uptake and digestion, with peristaltic pumps adding a defined amount of SHIME feed (3 times/day) and pancreatic and bile liquid to the stomach and duodenum compartment and emptying the respective reactors after specified intervals. The last three compartments (resp. ascending [reactor 3], transverse [reactor 4] and descending colon [reactor 5]) are continuously stirred reactors with constant volume and pH control. Retention time and pH of the different vessels were chosen in order to resemble in vivo conditions in the different parts of the gastrointestinal tract. The passage of food in the small intestine was simulated in reactor 2 by the addition of 60 ml artificial pancreatic and bile liquid, pancreatin and NaHCO3. The temperature of the system was kept at 37° C. by a thermostat and the system was kept anaerobic by flushing it with N2 for 15 min every day. Inoculum was prepared from faecal matter as described in De Boever et al. (2000) J. Nutrition 130, 2599-2606. Reactor 3, 4, and 5 were filled with nutritional medium and pH was adjusted to the respective pH range. Finally, 50 ml inoculum was added to the last three reactors.
For the present experiment, two of the above described systems were combined as two completely separate reactors, which are driven by the same pumps (pumps with two pump heads, allowing to dose exactly the same amounts of liquids to both systems), have identical pH and temperature control and which receive the same liquid food. This way, all parameters are perfectly controlled and identical, except for the intestinal microbial communities in the 2 systems which can be introduced separately. In this case we introduced a community which was capable to activate methylated prenylflavonoids (PF+) and one which could not (PF−). After a two-week stabilization period in which normal SHIME feed was dosed, 25 mg/L IX was dosed to the SHIME feed for 4 weeks (day 15-44). In the last two weeks the selected Eubacterium limosum strain of example 2, was also administered to the first colon compartment, to simulate the application of the strain as a probiotic (day 30-44).

[3] = Urinary IX and 8-PN excretion in axenic and Human Flora Associated (HFA) rats; assay type: in vivo, rat; conditions: 2 mg IX/kg body weight daily
Experimental: An experiment with axenic and Human Flora Associated (HFA) rats was performed to test the capacity of the selected strain of example 2 to activate methylated prenylflavonoids in vivo. A total of 12 axenic rats were used for the study. When the rats were 5 weeks old, 3 HFA rats were associated by oral gavage with a freshly voided, homogenized fecal culture which has prenylflavonoid demethylating activity. These HFA rats were designated PF+ rats.
At the same time, 3 HFA rats were associated by oral gavage with a freshly voided, homogenized fecal culture without prenylflavonoid demethylating activity. These HFA rats were designated PF− rats. The remaining rats were kept under sterile conditions. All rats were kept in separate, closed collective cages prior to the start of the experiment.
After 3 weeks of stabilization of the microbial cultures inside the rat intestine, a first experiment was started. After moving the rats to individual metabolism cages, 2 mg IX/kg body weight was daily administered to each rat for 5 days and each day 24 h-pooled urine was collected. After 3 days, the urinary IX and 8-PN excretion was quantified. […]
Herein, the 6 axenic rats were associated with the selected E. limosum strain of example 2 for 7 days by daily oral gavage with a log 9 bacterial suspension. […] On day 7, the urinary IX and 8-PN excretion was quantified.

Structure (SMILES): COc1cc(O)c(CC=C(C)C)c2c1C(=O)C[C@@H](c1ccc(O)cc1)O2 [IX, 5-O-methyl-8-prenylnaringenin]
- Molar % IX to 8-PN conversion, Highest (E. limosum; selection round I): 46.5%
- Molar % IX to 8-PN conversion, Lowest (E. limosum; selection round I): 2% and 2.1%
- Molar % IX to 8-PN conversion, Mean (stdev) (E. limosum; selection round I): 22.5% and 22.5 (19.3) %
- Molar % IX to 8-PN conversion, Highest (E. limosum; selection round II): 79.4%
- Molar % IX to 8-PN conversion, Lowest (E. limosum; selection round II): 24.3%
- Molar % IX to 8-PN conversion, Mean (stdev) (E. limosum; selection round II): 57.9 (19.6) %
- Molar % IX to 8-PN conversion, Lowest (E. limosum; selection round III): 82% and 82.1%
- Molar % IX to 8-PN conversion, Mean (stdev) (E. limosum; selection round III): 90.5% and 90.5 (6.9) %
- Conversion of IX into 8-PN ([1]; 1% supplementation of E. limosum, after one day): half of the dosed IX was already transformed into 8-PN
- Conversion of IX into 8-PN ([1]; equal amount of E. limosum culture and fecal sample (100% in FIG. 7)): complete conversion of IX into 8-PN
- Conversion of IX into 8-PN ([2]; PF+ compartment, after supplementing the E. limosum strain (from day 30)): the activation potential increased
- Conversion of IX into 8-PN ([2]; PF+ compartment, only IX administered (day 15-30)): activation of methoxylated prenylflavonoids was noted in the distal colon parts
- Conversion of IX into 8-PN ([2]; PF− compartment, after supplementing the E. limosum strain (from day 30)): production of the estrogenically active 8-PN was detected in the distal colon part
- Conversion of IX into 8-PN ([2]; PF− compartment, only IX administered (day 15-30)): no conversion occurred
- 24 h-pooled urinary % 8-PN/(IX + 8-PN) excretion, Mean (Stdev) ([3]; PF+ HFA rats): 55.3 (9.1) %
- 24 h-pooled urinary % 8-PN/(IX + 8-PN) excretion, Mean (Stdev) ([3]; PF− HFA rats): 23.6 (10.4) %
